Laboratory results as given in patent US20070117770A1, “Human ribosomal DNA (rDNA) and ribosomal RNA (rRNA) nucleic acids and uses thereof” (Cylene Pharmaceuticals, Inc., priority 2005, published 2007).

Legend:
Experiment in all cases: Protein kinase inhibition assay
[1] = test system: c-RAF(h); format: biochemical, human; settings: 2.5 μM
Experimental: (§1) Certain compounds were tested for activity in protein kinase inhibition assays. All substrates were dissolved and diluted to working stocks in de-ionized water, apart from histone H1 (10× working stock in 20 mM MOPS pH 7.0), PDKtide (10× working stock in 50 mM Tris pH 7.0) ATF2 (which is typically stored at a 20× working stock in 50 mM Tris pH 7.5, 150 mM NaCl, 0.1 mM EGTA, 0.03% Brij-35, 50% glycerol, 1 mM benzamidine, 0.2 mM PMSF and 0.1% R-mercaptoethanol), KKLNRTLSFAEPG (SEQ ID NO:203) and RRRLSFAEPG (SEQ ID NO:204) (50 mM HEPES pH 7.4) and GGEEEEYFELVKKKK (SEQ ID NO:205) (20 mM MOPS pH 7.0). All kinases were pre-diluted to a 10× working concentration prior to addition into the assay. The composition of the dilution buffer for each kinase is detailed below.
(§2) In a final reaction volume of 25 μl, c-RAF (h) (5-10 mU) is incubated with 25 mM Tris pH 7.5, 0.02 mM EGTA, 0.66 mg/ml myelin basic protein, 10 mM MgAcetate and [gamma-33P-ATP] (specific activity approx. 500 cpm/pmol, concentration as required). The reaction is initiated by the addition of the MgATP mix. After incubation for 40 minutes at room temperature, the reaction is stopped by the addition of 5 μl of a 3% phosphoric acid solution. 10 μl of the reaction is then spotted onto a P30 filtermat and washed three times for 5 minutes in 75 mM phosphoric acid and once in methanol prior to drying and scintillation counting.

[2] = target: GSK3α(h) (Homo sapiens, UniProt P49840); format: biochemical; settings: read-out: percent residual activity of GSK3α(h)
Experimental: as §1
In a final reaction volume of 25 μl, GSK3α (h) (5-10 mU) is incubated with 8 mM MOPS pH 7.0, 0.2 mM EDTA, 20 μM […](p)EDEEE (SEQ ID NO:216) (phospho GS2 peptide), 10 mM MgAcetate and [gamma-33P-ATP] (specific activity approx. 500 cpm/pmol, concentration as required). The reaction is initiated by the addition of the MgATP mix. After incubation for 40 minutes at room temperature, the reaction is stopped by the addition of 5 μl of a 3% phosphoric acid solution. […]

[3] = target: KDR(h) (Homo sapiens, UniProt P35968); format: biochemical; settings: read-out: percent residual activity of KDR(h)
Experimental: as §1
as §2, with “μl, KDR” for “μl, c-RAF”, “with 8” for “with 25”, “mM MOPS” for “mM Tris”, “pH 7.0, 0.2” for “pH 7.5, 0.02”, “mM EDTA, 0.33” for “mM EGTA, 0.66”, “and [y-33P-ATP]” for “and [gamma-33P-ATP]”

[4] = target: MST1(h) (Homo sapiens, UniProt Q13043); format: biochemical; settings: read-out: percent residual activity of MST1(h)
Experimental: as §1
as §2, with “μl, MST1” for “μl, c-RAF”, “with 8” for “with 25”, “mM MOPS” for “mM Tris”, “pH 7.0, 0.2” for “pH 7.5, 0.02”, “mM EDTA, 250 μM KKSRGDYMTMQIG (SEQ ID NO:210),” for “mM EGTA, 0.66 mg/ml myelin basic protein,”

[5] = target: MST2(h) (Homo sapiens, UniProt Q13188); format: biochemical; settings: read-out: percent residual activity of MST2(h)
Experimental: as §1
as §2, with “μl, MST2” for “μl, c-RAF”, “with 8” for “with 25”, “mM MOPS” for “mM Tris”, “pH 7.0, 0.2” for “pH 7.5, 0.02”, “mM EDTA, 0.33” for “mM EGTA, 0.66”

[6] = target: Snk(h) (Homo sapiens, UniProt Q9NYY3); format: biochemical; settings: read-out: percent residual activity of Snk(h)
Experimental: as §1
as §2, with “μl, Snk” for “μl, c-RAF”, “with 8” for “with 25”, “mM MOPS” for “mM Tris”, “pH 7.0, 0.2” for “pH 7.5, 0.02”, “mM EDTA, 2” for “mM EGTA, 0.66”, “mg/ml casein,” for “mg/ml myelin basic protein,”

[7] = target: TBK1(h) (Homo sapiens, UniProt Q9UHD2); format: biochemical; settings: read-out: percent residual activity of TBK1(h)
Experimental: as §1
as §2, with “μl, TBK1” for “μl, c-RAF”, “with 8” for “with 25”, “mM MOPS” for “mM Tris”, “pH 7.0, 0.2” for “pH 7.5, 0.02”, “mM EDTA, 200 μM KRRRALS(p)VASLPGL (SEQ ID NO:214),” for “mM EGTA, 0.66 mg/ml myelin basic protein,”

GSK3α(h), sequence (P49840 whole entry): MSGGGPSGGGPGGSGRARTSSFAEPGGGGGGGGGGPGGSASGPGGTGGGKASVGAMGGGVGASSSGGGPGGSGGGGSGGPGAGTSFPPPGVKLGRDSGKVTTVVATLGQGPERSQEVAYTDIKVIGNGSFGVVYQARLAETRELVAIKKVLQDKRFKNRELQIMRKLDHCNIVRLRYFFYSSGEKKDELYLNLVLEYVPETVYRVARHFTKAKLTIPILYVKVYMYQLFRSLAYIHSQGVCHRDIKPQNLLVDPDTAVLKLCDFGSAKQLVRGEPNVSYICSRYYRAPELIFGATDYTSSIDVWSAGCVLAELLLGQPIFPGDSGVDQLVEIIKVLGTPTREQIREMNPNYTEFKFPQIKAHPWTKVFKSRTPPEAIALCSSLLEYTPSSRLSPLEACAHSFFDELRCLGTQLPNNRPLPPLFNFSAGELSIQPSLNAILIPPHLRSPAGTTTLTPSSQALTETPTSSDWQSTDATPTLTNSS
MST2(h), sequence (Q13188 whole entry): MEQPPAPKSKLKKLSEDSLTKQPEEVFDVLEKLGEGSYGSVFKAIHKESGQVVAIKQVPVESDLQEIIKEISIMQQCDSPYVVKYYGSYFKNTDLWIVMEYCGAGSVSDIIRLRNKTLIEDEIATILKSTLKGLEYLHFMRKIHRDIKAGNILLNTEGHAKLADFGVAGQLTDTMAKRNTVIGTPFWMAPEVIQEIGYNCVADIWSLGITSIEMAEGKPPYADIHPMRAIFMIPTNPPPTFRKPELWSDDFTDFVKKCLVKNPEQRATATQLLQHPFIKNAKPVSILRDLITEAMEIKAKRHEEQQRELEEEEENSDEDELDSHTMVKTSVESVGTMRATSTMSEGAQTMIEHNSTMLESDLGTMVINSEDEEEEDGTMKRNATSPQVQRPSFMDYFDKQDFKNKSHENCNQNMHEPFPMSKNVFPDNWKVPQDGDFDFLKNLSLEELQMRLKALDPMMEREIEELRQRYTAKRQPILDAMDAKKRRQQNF
TBK1(h), sequence (Q9UHD2 whole entry): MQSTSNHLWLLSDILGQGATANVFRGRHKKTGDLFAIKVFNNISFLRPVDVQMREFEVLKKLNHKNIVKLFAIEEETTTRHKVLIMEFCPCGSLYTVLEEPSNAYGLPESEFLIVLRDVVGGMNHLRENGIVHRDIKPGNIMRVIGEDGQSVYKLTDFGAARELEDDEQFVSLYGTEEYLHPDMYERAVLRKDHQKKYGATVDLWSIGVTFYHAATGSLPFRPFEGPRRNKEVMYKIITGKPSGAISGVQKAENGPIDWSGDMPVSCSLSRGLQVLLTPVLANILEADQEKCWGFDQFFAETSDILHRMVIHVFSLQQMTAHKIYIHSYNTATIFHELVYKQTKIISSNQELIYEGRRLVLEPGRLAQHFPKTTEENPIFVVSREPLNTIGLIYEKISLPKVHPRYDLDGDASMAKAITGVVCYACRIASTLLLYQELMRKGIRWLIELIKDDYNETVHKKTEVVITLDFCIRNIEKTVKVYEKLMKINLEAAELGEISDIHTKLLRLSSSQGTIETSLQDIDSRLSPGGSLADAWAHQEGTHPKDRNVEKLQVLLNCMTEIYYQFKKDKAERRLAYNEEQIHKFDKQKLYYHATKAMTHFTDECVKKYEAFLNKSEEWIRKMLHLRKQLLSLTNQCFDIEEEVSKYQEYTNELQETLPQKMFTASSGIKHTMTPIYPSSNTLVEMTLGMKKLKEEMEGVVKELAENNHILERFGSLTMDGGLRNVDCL
KDR(h), sequence (P35968 20-1356): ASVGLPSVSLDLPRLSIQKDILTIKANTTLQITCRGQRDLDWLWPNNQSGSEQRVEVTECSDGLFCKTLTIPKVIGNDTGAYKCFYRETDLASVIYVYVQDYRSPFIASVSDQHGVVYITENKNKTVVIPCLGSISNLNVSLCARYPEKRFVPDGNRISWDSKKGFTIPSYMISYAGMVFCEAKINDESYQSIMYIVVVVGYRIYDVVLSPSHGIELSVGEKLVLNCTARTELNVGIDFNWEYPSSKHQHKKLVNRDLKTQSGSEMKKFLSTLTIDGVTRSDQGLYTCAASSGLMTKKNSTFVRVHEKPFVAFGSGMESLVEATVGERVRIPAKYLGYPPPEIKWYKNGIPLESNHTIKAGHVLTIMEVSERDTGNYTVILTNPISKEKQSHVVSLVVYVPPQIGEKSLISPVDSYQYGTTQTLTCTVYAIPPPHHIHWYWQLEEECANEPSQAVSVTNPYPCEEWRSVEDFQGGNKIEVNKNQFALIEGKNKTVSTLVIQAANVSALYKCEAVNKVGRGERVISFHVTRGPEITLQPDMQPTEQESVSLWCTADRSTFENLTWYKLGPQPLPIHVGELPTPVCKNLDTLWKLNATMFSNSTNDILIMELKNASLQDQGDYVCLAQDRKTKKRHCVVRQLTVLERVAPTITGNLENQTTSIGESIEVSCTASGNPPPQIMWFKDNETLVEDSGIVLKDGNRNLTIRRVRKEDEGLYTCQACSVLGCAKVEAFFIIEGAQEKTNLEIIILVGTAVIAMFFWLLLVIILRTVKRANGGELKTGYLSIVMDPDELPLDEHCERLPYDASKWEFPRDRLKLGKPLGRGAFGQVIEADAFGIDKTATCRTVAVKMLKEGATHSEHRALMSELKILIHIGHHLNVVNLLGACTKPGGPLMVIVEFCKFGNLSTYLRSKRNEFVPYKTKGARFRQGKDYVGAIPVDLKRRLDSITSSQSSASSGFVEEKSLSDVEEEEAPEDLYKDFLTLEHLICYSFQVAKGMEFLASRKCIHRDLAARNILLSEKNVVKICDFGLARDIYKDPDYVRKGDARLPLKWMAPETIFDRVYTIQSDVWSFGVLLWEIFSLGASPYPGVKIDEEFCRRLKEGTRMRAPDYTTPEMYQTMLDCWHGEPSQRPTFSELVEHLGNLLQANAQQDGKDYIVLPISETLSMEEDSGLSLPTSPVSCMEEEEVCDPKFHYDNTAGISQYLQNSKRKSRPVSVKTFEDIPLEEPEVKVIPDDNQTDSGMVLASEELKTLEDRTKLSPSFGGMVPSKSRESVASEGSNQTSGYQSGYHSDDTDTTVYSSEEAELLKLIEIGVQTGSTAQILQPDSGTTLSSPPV
Snk(h), sequence (Q9NYY3 whole entry): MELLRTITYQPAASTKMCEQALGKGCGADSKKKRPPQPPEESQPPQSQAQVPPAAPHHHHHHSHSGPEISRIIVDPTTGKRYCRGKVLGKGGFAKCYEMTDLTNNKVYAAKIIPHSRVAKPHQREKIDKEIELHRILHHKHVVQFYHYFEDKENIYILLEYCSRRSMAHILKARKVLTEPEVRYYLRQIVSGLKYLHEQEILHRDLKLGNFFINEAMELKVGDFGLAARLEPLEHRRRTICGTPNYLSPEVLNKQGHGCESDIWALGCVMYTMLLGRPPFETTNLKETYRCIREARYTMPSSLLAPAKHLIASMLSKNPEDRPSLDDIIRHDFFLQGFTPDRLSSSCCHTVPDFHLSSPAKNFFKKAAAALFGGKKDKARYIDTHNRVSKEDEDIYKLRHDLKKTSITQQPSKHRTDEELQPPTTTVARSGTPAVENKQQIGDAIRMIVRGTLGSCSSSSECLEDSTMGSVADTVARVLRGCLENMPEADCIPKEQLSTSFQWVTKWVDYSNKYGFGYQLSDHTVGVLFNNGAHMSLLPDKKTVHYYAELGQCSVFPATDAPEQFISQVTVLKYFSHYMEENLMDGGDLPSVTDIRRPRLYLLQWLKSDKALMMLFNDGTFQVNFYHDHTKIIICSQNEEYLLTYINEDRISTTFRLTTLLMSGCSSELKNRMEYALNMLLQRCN
MST1(h), sequence (Q13043 whole entry): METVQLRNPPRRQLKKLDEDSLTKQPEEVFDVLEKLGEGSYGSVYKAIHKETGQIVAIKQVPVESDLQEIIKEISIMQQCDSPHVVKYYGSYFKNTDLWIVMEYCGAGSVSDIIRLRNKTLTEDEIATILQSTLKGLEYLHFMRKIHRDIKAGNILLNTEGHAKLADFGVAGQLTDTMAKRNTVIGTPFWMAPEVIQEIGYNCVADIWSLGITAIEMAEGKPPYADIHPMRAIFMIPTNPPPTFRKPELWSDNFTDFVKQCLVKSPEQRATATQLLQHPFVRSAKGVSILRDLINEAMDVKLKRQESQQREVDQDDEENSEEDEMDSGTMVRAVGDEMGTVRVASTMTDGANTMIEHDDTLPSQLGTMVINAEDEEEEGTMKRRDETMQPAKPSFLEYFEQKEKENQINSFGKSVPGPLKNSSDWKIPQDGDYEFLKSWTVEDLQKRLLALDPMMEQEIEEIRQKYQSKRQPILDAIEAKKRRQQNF

SMILES | percent residual activity of c-RAF(h) [1] | remaining activity at 2.5 µM [2] | remaining activity at 2.5 µM [3] | remaining activity at 2.5 µM [4] | remaining activity at 2.5 µM [5] | remaining activity at 2.5 µM [6] | remaining activity at 2.5 µM [7]
CN1CCCC1CCNC(=O)c1cn2c3c(c(N4CCC(c5cnccn5)C4)c(F)cc3c1=O)Oc1cc3ccccc3cc1-2 (centres unmarked) [Compound A-1] | 100% | 101% | 90% | 76% | 76% | 125% | 71%
CC(=O)N1CCN(c2ccc3c(=O)c(C(=O)NCCN4CCCC4)c4n(C)c5ccccc5n4c3n2)CC1 [Compound B-1] | 96% | 89% | 95% | 96% | 106% | 125% | 114%
